Tests used:
D. folliculorum = test: In vitro miticidal assay, survival of isolated human demodex mites under microscopy; details: for Number mites dead / (%) mites dead: D. folliculorum; for Number mites dead: 30 mites per slide
Protocol: (§1) DHIS has potent miticidal activities. As described herein, an in vitro miticidal assay was performed to determine the miticidal activities of DHIS by using human demodex mites prepared with pressure scraping method, following by microscopic examination of the survival time of demodex under microscopy, using the method described in Chinese Journal of Parasitology and Parasitic Diseases 2011; 29:258-263.
(§2) In vitro miticidal assay was performed using human demodex mites prepared with pressure scraping method, following by microscopic examination of the survival time of demodex under microscopy, using the method described in Chinese Journal of Parasitology and Parasitic Diseases (Supra).
(§3) […] The slides were incubated at room temperature (20° C.) and under 70% humidity. The slides were examined under microscopy every 60 minutes for 8 hours after treatment. At each time point, the percentage of dead mites (no movements for 1 minute) was recorded for each treatment concentration.

D. bravis = test: as above; details: for Number mites dead: 30 mites per slide
Protocol: as §1, §2, §3

demodex mites [1] = test: Topical DHIS cream in volunteers with papulopustular rosacea (FIG. 1); type: in vivo, human; details: DHIS 0.75% cream twice daily
Protocol: (§4) A total of 20 volunteers (10 with papulopustular rosacea, 10 with papulopustular acne vulgaris) were recruited for this observation.
(§5) For each volunteer, the duration of the condition, the baseline sign and symptoms of their facial conditions and the severity of their condition were recorded. For the signs of the condition, papules and pustules were counted as total number for each individual. Erythema was rated as severe (3, deep red to purple), moderate (2, red), mild (1, pink), or none (0, normal color). For burning and pruritus, visual analogue scale (10 cm line) was used, with the score recorded from 0 (no symptoms) to 10 cm (most severe). In addition, the baseline demodex mite density of the perinasal skin was measured using the modified pressure-scraping technique. For the purpose of this study, both D. folliculorum and D. bravis were counted together. Then each volunteer used DHIS topical cream at 0.75% concentration, twice daily to the affected areas on the face. They were seen again at 4 weeks, when the clinical signs and symptoms were recorded. Further the demodex mite density was assessed again using the modified pressure/scraping technique.
(§6) Individuals with papulopustular rosacea (FIG. 1, N=10) and acne (FIG. 2, N=10) received DHIS 0.75% cream twice daily for 4 weeks. The demodex mite density (mite/cm^2) and clinical signs/symptoms are assessed at the baseline and again at 4 weeks. Papules and pustules are counted or the entire facial area for each individual. Erythema was graded as mild (1, pink), moderate (2, red), or severe (3, purple-red), whereas itchiness and burning sensation were graded according to a 10 cm visual analogue scale. * denotes p<0.05 (t-test)

demodex mites [2] = test: Case study, acne patient; type: in vivo, human; details: Case 2, person with acne, DHIS 0.75% cream BID, 4 weeks
Excerpt: Case 2 involved a person with more than 3 years of acnes symptoms. They had open comedons as well as closed comedons. There were papules and pustules but only mild erythema. They had received topical retinoic acid therapy with no improvement. In addition, they received benzoyl peroxide/antibiotic combination topical therapy, oral birth control pills, oral tetracycline, as well as oral Traditional Chinese Medicine concoction, all without satisfactory effects. They had increased demodex mite count at base line. […] Their facial acne papules and pustules resolved at the end of 4 weeks. See photos of the acne patient (cheeks and forehead) prior to treatment (FIGS. 4A and 5A) and after 4 weeks of treatment (FIGS. 4B and 5B).

demodex mites [3] = test: Topical DHIS cream in volunteers with papulopustular acne vulgaris (FIG. 2); type: in vivo, human; details: acne patients, DHIS 0.75% cream twice daily
Protocol: as §4, §5, §6

demodex mites [4] = test: Case study, rosacea patient; type: in vivo, human; details: Case 1, person with rosacea, DHIS 0.75% cream BID for 4 weeks
Excerpt: Case 1 involved a person with rosacea for 11 years. They had facial erythema and papules and pustules, with mild telangiectasia. There was burning sensation. This was associated with mild rhinophyma. There was foreign body sensation in the eyes. They had received tetracycline and sulfonamide based creams with no obvious improvement. At base line, there was more than usual number of demodex mites. They received DHIS 0.75% cream treatment BID for 4 weeks. […] See photos of the rosacea patient prior to treatment (FIG. 3A) and after 4 weeks of treatment (FIG. 3B).

Q: `CC(C)c1c(O)cc(/C=C/c2ccccc2)cc1O` [DHIS, 3,5-Dihydroxy-4-isopropyl-trans-stilbene] was tested. Which Number mites dead (D. folliculorum; DHIS 1 μM, 0 hr) did it give?
A: 0

Q: And the “(%) mites dead” value (D. folliculorum; DHIS 1 μM, 1 hr)?
A: (10) %

Q: And the Number mites dead (D. folliculorum; DHIS 1 μM, 1 hr)?
A: 3

Q: And the “(%) mites dead” value (D. folliculorum; DHIS 1 μM, 2 hr)?
A: (17) %

Q: And the Number mites dead (D. folliculorum; DHIS 1 μM, 2 hr)?
A: 5

Q: What about the “(%) mites dead” value (D. folliculorum; DHIS 1 μM, 3 hr) of the same compound?
A: (28) %

Q: What about the Number mites dead (D. folliculorum; DHIS 1 μM, 3 hr) of the same compound?
A: 8.6

Q: What about the “(%) mites dead” value (D. folliculorum; DHIS 1 μM, 4 hr) of the same compound?
A: (43) %

Q: What about the Number mites dead (D. folliculorum; DHIS 1 μM, 4 hr) of the same compound?
A: 13

Q: What about the Number mites dead (D. folliculorum; DHIS 10 μM, 0 hr) of the same compound?
A: 0

Q: And the “(%) mites dead” value (D. folliculorum; DHIS 10 μM, 1 hr)?
A: (23) %

Q: What about the Number mites dead (D. folliculorum; DHIS 10 μM, 1 hr) of the same compound?
A: 7

Q: What about the “(%) mites dead” value (D. folliculorum; DHIS 10 μM, 2 hr) of the same compound?
A: (41) %

Q: And the Number mites dead (D. folliculorum; DHIS 10 μM, 2 hr)?
A: 12.3

Q: And the “(%) mites dead” value (D. folliculorum; DHIS 10 μM, 3 hr)?
A: (47) %

Q: What about the Number mites dead (D. folliculorum; DHIS 10 μM, 3 hr) of the same compound?
A: 14

Q: And the “(%) mites dead” value (D. folliculorum; DHIS 10 μM, 4 hr)?
A: (73) %

Q: And the Number mites dead (D. folliculorum; DHIS 10 μM, 4 hr)?
A: 22

Q: What about the Number mites dead (D. folliculorum; DHIS 100 μM, 0 hr) of the same compound?
A: 0

Q: What about the “(%) mites dead” value (D. folliculorum; DHIS 100 μM, 1 hr) of the same compound?
A: (33) %

Q: What about the Number mites dead (D. folliculorum; DHIS 100 μM, 1 hr) of the same compound?
A: 10

Q: What about the “(%) mites dead” value (D. folliculorum; DHIS 100 μM, 2 hr) of the same compound?
A: (72) %

Q: And the Number mites dead (D. folliculorum; DHIS 100 μM, 2 hr)?
A: 21.7

Q: What about the “(%) mites dead” value (D. folliculorum; DHIS 100 μM, 3 hr) of the same compound?
A: (87) %

Q: And the Number mites dead (D. folliculorum; DHIS 100 μM, 3 hr)?
A: 26

Q: What about the “(%) mites dead” value (D. folliculorum; DHIS 100 μM, 4 hr) of the same compound?
A: (92) %

Q: And the Number mites dead (D. folliculorum; DHIS 100 μM, 4 hr)?
A: 27.7

Q: What about the Number mites dead (D. folliculorum; DHIS 1.0 mM, 0 hr) of the same compound?
A: 0

Q: What about the “(%) mites dead” value (D. folliculorum; DHIS 1.0 mM, 1 hr) of the same compound?
A: (43) %

Q: What about the Number mites dead (D. folliculorum; DHIS 1.0 mM, 1 hr) of the same compound?
A: 13

Q: What about the “(%) mites dead” value (D. folliculorum; DHIS 1.0 mM, 2 hr) of the same compound?
A: (80) %

Q: What about the Number mites dead (D. folliculorum; DHIS 1.0 mM, 2 hr) of the same compound?
A: 24

Q: And the “(%) mites dead” value (D. folliculorum; DHIS 1.0 mM, 3 hr)?
A: (93) %

Q: And the Number mites dead (D. folliculorum; DHIS 1.0 mM, 3 hr)?
A: 28

Q: What about the “(%) mites dead” value (D. folliculorum; DHIS 1.0 mM, 4 hr) of the same compound?
A: (97) %

Q: What about the Number mites dead (D. folliculorum; DHIS 1.0 mM, 4 hr) of the same compound?
A: 29

Q: And the “miticidal activity in vitro” value (D. folliculorum; human demodex mites, Example 1)?
A: dose-dependent miticidal activity

Q: And the Number mites dead (D. bravis; DHIS 1 μM, 0 hr)?
A: 0

Q: And the “(%) mites dead” value (D. bravis; DHIS 1 μM, 1 hr)?
A: (6.7) %

Q: And the Number mites dead (D. bravis; DHIS 1 μM, 1 hr)?
A: 2

Q: And the “(%) mites dead” value (D. bravis; DHIS 1 μM, 2 hr)?
A: (13) %

Q: What about the Number mites dead (D. bravis; DHIS 1 μM, 2 hr) of the same compound?
A: 4

Q: And the “(%) mites dead” value (D. bravis; DHIS 1 μM, 3 hr)?
A: (23) %

Q: What about the Number mites dead (D. bravis; DHIS 1 μM, 3 hr) of the same compound?
A: 7

Q: And the “(%) mites dead” value (D. bravis; DHIS 1 μM, 4 hr)?
A: (33) %

Q: And the Number mites dead (D. bravis; DHIS 1 μM, 4 hr)?
A: 10

Q: And the Number mites dead (D. bravis; DHIS 10 μM, 0 hr)?
A: 0

Q: What about the “(%) mites dead” value (D. bravis; DHIS 10 μM, 1 hr) of the same compound?
A: (20) %

Q: What about the Number mites dead (D. bravis; DHIS 10 μM, 1 hr) of the same compound?
A: 6

Q: And the “(%) mites dead” value (D. bravis; DHIS 10 μM, 2 hr)?
A: (37) %

Q: What about the Number mites dead (D. bravis; DHIS 10 μM, 2 hr) of the same compound?
A: 11

Q: What about the “(%) mites dead” value (D. bravis; DHIS 10 μM, 3 hr) of the same compound?
A: (47) %

Q: What about the Number mites dead (D. bravis; DHIS 10 μM, 3 hr) of the same compound?
A: 14

Q: What about the “(%) mites dead” value (D. bravis; DHIS 10 μM, 4 hr) of the same compound?
A: (63) %

Q: And the Number mites dead (D. bravis; DHIS 10 μM, 4 hr)?
A: 19

Q: What about the Number mites dead (D. bravis; DHIS 100 μM, 0 hr) of the same compound?
A: 0

Q: What about the “(%) mites dead” value (D. bravis; DHIS 100 μM, 1 hr) of the same compound?
A: (40) %

Q: And the Number mites dead (D. bravis; DHIS 100 μM, 1 hr)?
A: 12

Q: And the “(%) mites dead” value (D. bravis; DHIS 100 μM, 2 hr)?
A: (63) %

Q: What about the Number mites dead (D. bravis; DHIS 100 μM, 2 hr) of the same compound?
A: 19

Q: And the “(%) mites dead” value (D. bravis; DHIS 100 μM, 3 hr)?
A: (80) %

Q: And the Number mites dead (D. bravis; DHIS 100 μM, 3 hr)?
A: 24

Q: What about the “(%) mites dead” value (D. bravis; DHIS 100 μM, 4 hr) of the same compound?
A: (87) %

Q: And the Number mites dead (D. bravis; DHIS 100 μM, 4 hr)?
A: 26

Q: And the Number mites dead (D. bravis; DHIS 1.0 mM, 0 hr)?
A: 0

Q: And the “(%) mites dead” value (D. bravis; DHIS 1.0 mM, 1 hr)?
A: (47) %

Q: And the Number mites dead (D. bravis; DHIS 1.0 mM, 1 hr)?
A: 14

Q: What about the “(%) mites dead” value (D. bravis; DHIS 1.0 mM, 2 hr) of the same compound?
A: (60) %

Q: And the Number mites dead (D. bravis; DHIS 1.0 mM, 2 hr)?
A: 18

Q: What about the “(%) mites dead” value (D. bravis; DHIS 1.0 mM, 3 hr) of the same compound?
A: (87) %

Q: And the Number mites dead (D. bravis; DHIS 1.0 mM, 3 hr)?
A: 26

Q: What about the “(%) mites dead” value (D. bravis; DHIS 1.0 mM, 4 hr) of the same compound?
A: (87) %

Q: What about the Number mites dead (D. bravis; DHIS 1.0 mM, 4 hr) of the same compound?
A: 26

Q: What about the erythema (demodex mites [1]; 4 weeks) of the same compound?
A: reduced erythema was also statistically significant

Q: And the “itchiness and burning sensation” value (demodex mites [1]; 4 weeks)?
A: reduced

Q: What about the “lesional counts for papules and pustules” value (demodex mites [1]; 4 weeks) of the same compound?
A: dramatic reduction

Q: And the demodex mite density (demodex mites [1]; 4 weeks compared with baseline)?
A: significant reduction

Q: What about the “facial acne papules and pustules” value (demodex mites [2]) of the same compound?
A: resolved

Q: What about the “facial demodex mite density” value (demodex mites [2]) of the same compound?
A: significantly decreased

Q: What about the erythema (demodex mites [3]; 4 weeks) of the same compound?
A: reduced erythema was also statistically significant

Q: And the “itchiness and burning sensation” value (demodex mites [3]; 4 weeks)?
A: reduced

Q: What about the “lesional counts for papules and pustules” value (demodex mites [3]; 4 weeks) of the same compound?
A: dramatic reduction

Q: And the demodex mite density (demodex mites [3]; 4 weeks compared with baseline)?
A: significant reduction

Q: And the demodex mite density (demodex mites [4])?
A: markedly decreased

Q: And the “rosacea signs and symptoms” value (demodex mites [4])?
A: dramatically improved

— patent US20170231922A1, “3, 5-DIHYDROXY-4-ISOPROPYLSTILBENE (DHIS) AS MITICIDAL AGENT AND ITS THERAPEUTIC USES” (Horizon GenoMed Therapeutics, Inc, priority 2016, published 2017)
